Laboratory results taken from BindingDB's records for doi:10.1038/nchembio.155 (University of California San Francisco, 2009).
pKi: −log10 of the molar value.

What follows are molecules tested against Beta-lactamase (Escherichia coli (strain K12), UniProt P00811) (assay: Beta-lactamase AmpC Inhibition Assay). Conditions: pH 7.
From the text: Class C Beta-lactamase AmpC inhibition assay

Chain of Beta-lactamase (P00811 whole entry): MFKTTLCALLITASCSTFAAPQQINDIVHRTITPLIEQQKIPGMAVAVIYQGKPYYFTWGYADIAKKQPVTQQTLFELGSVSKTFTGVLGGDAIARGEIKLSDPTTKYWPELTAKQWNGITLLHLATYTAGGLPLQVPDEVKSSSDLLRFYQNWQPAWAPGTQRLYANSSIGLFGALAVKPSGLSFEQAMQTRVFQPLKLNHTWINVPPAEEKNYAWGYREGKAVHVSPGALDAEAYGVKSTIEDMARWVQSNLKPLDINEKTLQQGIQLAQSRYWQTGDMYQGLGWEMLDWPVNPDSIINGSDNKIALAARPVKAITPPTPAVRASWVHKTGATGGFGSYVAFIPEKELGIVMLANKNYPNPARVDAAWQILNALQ

Q: `O=C(Nc1cccc(-c2nnn[nH]2)c1)c1cccc(F)c1` [CID8067740] was tested. Which pKi did it give?
A: 2.55

Q: `CCc1c(C)[nH]n(-c2nnn[nH]2)c1=O` [CID7357365] was tested. Which pKi did it give?
A: 2.51

Q: With `O=C(O)CN1C(=O)O[C@@H](c2ccccc2)C1=O` [CID25181261] as the molecule, how does the pKi read?
A: 2.46

Q: With `C[C@@H](C(=O)O)N1C(=O)C2C3CCC(C3)C2C1=O` (stereo partly specified) [CID25181259] as the molecule, how does the pKi read?
A: 2.66

Q: `O=c1c2c3c(sc2ncn1Cc1nn[nH]n1)CCCC3` [CID 7263523] was tested. Which pKi did it give?
A: 2.82

Q: With `O=C1c2ccccc2C(=O)N1CCc1nnn[nH]1` [CID7129233] as the molecule, how does the pKi read?
A: 2.48
